These results are taken from patent publication US8691184B2, “Bcl-2/Bcl-xL inhibitors and therapeutic methods using the same” (The Regents of the University of Michigan, priority 2011, dated 2014).

In one test the test system is ML-2 cell line. Description: Western blot of PARP and caspase-3 cleavage, ML-2. The test is classed as cell-based. Conditions: as low as 100 nM, 8-hr treatment. The method, then:
(§1) Cells were lysed with lysis buffer (PBS containing 1% NP40, 0.5% Na-deoxycholate, and 0.1% SDS) supplemented with protease inhibitors (α-complete, Roche). The protein extracts were quantified using a calorimetric assay (Bradford Reagent) (BioRad, Hercules, Calif.). Proteins were electrophoresed onto 4-20% SDS-PAGE gels (Invitrogen) and transferred onto polyvinylidene difluoride membranes (Bio-Rad). Following blocking in 5% milk, membranes were incubated with a specific primary antibody, washed, and incubated with horseradish peroxidase-linked secondary antibody (Pierce). The signals were visualized with the chemiluminescent horseradish peroxidase antibody detection reagent (Denville Scientific).
(In general: In western blotting, separated proteins are transferred to a membrane and probed.)

The subject of the next test is H146 cell line. As to the kind of experiment: Western blot of PARP and caspase-3 cleavage, H146. The test is classed as cell-based. Conditions: as low as 100 nM, 8-hr treatment. The method, then:
as §1

A further test relates to RS4;11 cells. As to the kind of experiment: Cell growth assay (WST-8), RS4;11. The test is classed as cell-based. Conditions: Homo sapiens, RS4-11, 96 h; Table 3, 4 days; read-out: Cell Growth Inhibition (IC50 ± SD) RS4; 11. The protocol:
(§2) RS4;11 and H146 cells were seeded in 96-well cell culture plates at a density of 10,000 cells/well with serially diluted compounds and incubated at 37° C. in an atmosphere of 95% air and 5% CO2 for 4 days. Cell viability was determined using the WST-8 (2-(2-methoxy-4-nitrophenyl)-3-(4-nitrophenyl)-5-(2,4-disulfophenyl)-2H-tetrazolium, monosodium salt) based Cell Counting-8 Kit (Dojindo Molecular Technologies, Inc., Rockville, Md.) according to the manufacture's instruction. Briefly, WST-8 was added to each well at a final concentration of 10% (v/v), and then the plates were incubated at 37° C. for 1˜2 hours for color development. The absorbance was measured at 450 nm using a SPECTRAmax PLUS plate reader (Molecular Devices, Sunnyvale, Calif.). The half maximal inhibitory concentration (IC50) was calculated using the GraphPad Prism 5 software (GraphPad Software, La Jolla, Calif.).

The next test relates to cellular Bcl-2/Bcl-xL. Description: Competitive pull-down against Biotin-150 in ML-2 and H146 cell lysates. Conditions: competitive experiment. The test is classed as binding.
Test [1] has as its system ML-2 acute myeloid leukemia (AML) cell line. Description: Cell growth assay (WST-8), ML-2. The test is classed as cell-based. Conditions: Table 3; read-out: Cell Growth Inhibition (IC50 ± SD) ML-2. On the technique in general: Tetrazolium assays rely on reduction of a dye to a coloured formazan, in cell work by metabolically active cells.
The test system of a further test is ML-2 AML cell line. Description: Apoptosis assay (Annexin-V/PI flow cytometry), ML-2. The test is classed as cell-based. Conditions: 300 nM, 24 hr. The protocol: (§3) Apoptosis assay was performed using the Annexin-V-FLUOS Staining kit (Roche Diagnostics, Indianapolis, Ind.) according to the manufacturer's instruction. Briefly, cells were treated with compounds for the indicated time points, harvested and washed with PBS. Cells were stained with Annexin V-FITC and Propidium iodide for 15 minutes at room temperature in the dark before analyzed with a BD Biosciences FACSCaliburs (Becton Dickinson).
(In general: Flow cytometry measures light scatter and fluorescence of single cells or particles in a stream.)

Test [2] deals with RS4;11 cell line. As to the kind of experiment: Western blot of PARP and caspase-3 cleavage, RS4;11. The test is classed as cell-based. Conditions: as low as 100 nM, 8-hr treatment. The method, then:
as §1

The next test has as its system H146 cells. Description: Cell growth assay (WST-8), H146. The test is classed as cell-based. Conditions: Homo sapiens, NCI-H146, 96 h; Table 3, 4 days; read-out: Cell Growth Inhibition (IC50 ± SD) H146. The protocol:
as §2

Test [3] relates to RS4;11 cell line. Description: Apoptosis assay (Annexin-V/PI flow cytometry), RS4;11. The test is classed as cell-based. Conditions: time- and dose-dependent, Annexin-V/PI. The protocol: as §3
For test [4], the system named is H146 small-cell lung cancer cell line. As to the kind of experiment: Cell death assay (trypan blue), H146. The test is classed as cell-based. Conditions: trypan blue assay. The method, then:
Cell death assay was performed using a Trypan blue exclusion test of cell viability. One million cells were seeded in 6-well plates and incubated at 37° C. in an atmosphere of 95% air and 5% CO2 with or without compounds for the indicated time points. At the end of treatment, cells were collected and centrifuged at 1000 rpm for 5 minutes. The cell pellets were re-suspended in PBS and mixed with 0.4% Trypan blue (Invitrogen) at 1:1 dilution to determine cell viability using Olympus CKX41 microscope (Olympus, Center Valley, Pa.).

SMILES strings stand for the structures.

Consider `CN(C)CC[C@H](CSc1ccccc1)Nc1ccc(S(=O)(=O)NC(=O)c2ccc(N3CCN(Cc4ccccc4-c4ccc(Cl)cc4)CC3)cc2)cc1[N+](=O)[O-]` [ABT-737, reference compound], for which the “Cleavage of PARP and caspase-3” value was “highly effective in induction of cleavage of PARP and caspase-3” in the test on ML-2 cell line; “highly effective in induction of cleavage of PARP and caspase-3” in the test on H146 cell line; “highly effective in induction of cleavage of PARP and caspase-3” in the test with RS4;11 cell line [2]. Moreover, the IC50 in the test with RS4;11 cells came to 12 ± 6 nM; in test [1], 16 ± 2 nM; in the test on H146 cells, 62 ± 39 nM. Further, the “Blocking of interaction of cellular Bcl-2/Bcl-xL with Biotin-150” value in the test on cellular Bcl-2/Bcl-xL was “blocked the interaction of cellular Bcl-2/Bcl-xL and Biotin-150 in a dose-dependent manner”. In the test with ML-2 AML cell line, the “ML-2 cells undergoing apoptosis” value is “about 50%”. In the test on RS4;11 cell line [3], the “Apoptosis induction in RS4;11” value is “highly effective in induction of apoptosis”. Also, in test [4], the “Cell death induction in H146” value is reported as “effectively induced cell death”.

The IC50 is the concentration that inhibits the measured activity by half.
